For test [1], the system named is 31 P. aeruginosa strains obtained from 31 patients with cystic fibrosis. The test can be described thus: In vitro minimum inhibitory concentration (MIC) in MHBCA broth. It counts as cell-based. Conditions: 24 hours at 37° C. The protocol:
The antibacterial action of an antibiotic can be measured by means of the minimum inhibitory concentration, which consists of the concentration of the antibiotic required to prevent bacterial growth after the incubation of 10^4-5 bacteria in rapid growth phase, in an aerobic, protein-free medium with pH 7.2 for an incubation period of one night. This term is used to determine the sensitivity of the bacteria to a specific antibiotic agent.
100 μl of a concentration of 10^4 Colony Forming Units (CFU)/ml of 31 P. aeruginosa strains obtained from 31 patients with cystic fibrosis, 13 strains of which were mucus producers, were incubated for 24 hours at 37° C. in a Mueller Hinton broth, cation-adjusted (MHBCA) medium, corresponding to between 20 mg and 25 mg per liter of calcium and between 10 mg and 12.5 mg per liter of magnesium, assuring the reproducibility of the results for P. aeruginosa, in the presence of colistimethate sodium, and nanoparticles obtained according to Examples 1b and 2b, at different concentrations (less than 0.25, 0.25, 0.5, 1, 2, 4, 8 and 32 μg/ml).

For test [2], the system named is mucosa producing P. aeruginosa strain. Nature of the test: In vivo efficacy in CD1 mice with pulmonary infection, lung bacteria count. As to conditions: infected CD1 mice; intratracheal, once a day for three days; 3000 IU (0.24 mg colistimethate sodium equivalent). The protocol:
To carry out the in vivo toxicity and efficacy assays of the nanoparticles of the present invention, it was necessary to establish a rodent infection model. An intratracheal administration of different concentrations of mucosa producing P. aeruginosa included in microspheres (Concentration 1: 5×10^4 CFU, Concentration 2: 2.4×10^7 CFU, and Concentration 3: 3.89×10^10), obtained from a patient with cystic fibrosis, suspended in PBS, in CD1 mice was carried out, administering a different concentration to each rodent, to establish the optimum concentration for generating a suitable pulmonary infection, capable of making the rodents sick without causing their immediate death.
Five mice were used as the control group and 64 mice infected with the inoculation of the bacteria of a mucosa producing P. aeruginosa strain, at a concentration of 2.4×10^7 CFU, as explained in Example 8, were used. […] The amounts were calculated by adjusting the dose recommended in humans with respect to the weight of the mice (3000 IU, equivalent to 0.24 mg of free colistimethate sodium, equivalent to 2.88 mg of the nanoparticles according to Example 1b and 2.52 mg of nanoparticles according to Example 2b). […]

The subject of test [3] is H441 cell line. Nature of the test: Cell viability IC50 (CCK-8) as toxicity marker, H441. It counts as cell-based, human. As to conditions: 24 h incubation, triplicate. The protocol: (§1) The median inhibition concentration value (IC50) refers to the concentration of an assayed sample required to inhibit the growth of the 50% of the cell population. In this case IC50 value was estimated as a toxicity marker, as the cell viability assay is run under human cell (A549 and H441 cell lines, which are immortalised lines derived from human adenocarcinomic epithelial cell). Cells (at a density of 12,000 cells per well in a 96-well plate) were grown in Dulbecco's Modified Eagle Medium (DMEM) supplemented with 10% foetal bovine serum (FBS), 1% L-glutamine, 1% penicillin/streptomycin solution and 1% of Minimum Essential Medium non-essential amino acids 100× (MEM-NEAA) at 37° C. and 5% CO2 for 24 hours. Decreasing concentrations of nanoparticles 1b and 2b and free colistimethate sodium, starting from 10 mg/ml to 0.07812 mg/ml were added to the cells, diluted in DMEM supplemented with 0.5% serum and incubated at 37°±2° C. and 5% CO2 for 24 h. Cell viability was assessed by means of the Cell Counting Kit 8 after a washing step. With this aim, 10% of CCK-8 reagent was added to each well and incubated in a wet chamber for 4 hours at 37°±2° C. and 5% CO2. Subsequently, the absorbance was read at 450 nm and at 650 nm as the reference wavelength. The absorbance was directly proportional to the number of living cells in culture. […]

Test [4] relates to A549 cell line. Nature of the test: Cell viability IC50 (CCK-8) as toxicity marker, A549. It counts as cell-based, human. As to conditions: 24 h incubation, triplicate. The method, then:
as §1

For orientation: MIC means the lowest concentration that inhibits growth of the organism. Low values mean greater potency, high ones weaker potency.

As to colistimethate sodium, the MIC in test [1] (obtained for 16% of the 31 strains) came out at 0.5 µg/mL; in test [1] (obtained for 25% of the 31 strains), 1 µg/mL; in test [1] (obtained for 48% of the 31 strains), 2 µg/mL; in test [1] (obtained for the remaining strains), 4 µg/mL. Also, in test [2], the “Bacterial count (log CFU for every 2 lungs)” value was determined as 4.9 ± 0.2 log CFU for every 2 lungs. The “IC50 (median inhibition concentration, cell viability)” value in test [3] worked out at 6.58 ± 0.72 µg/mL; in test [4], 101.27 ± 14.44 µg/mL.

(Values after patent US9919027B2, “Lipid nanoparticle of polymyxin” (priority 2013, dated 2018).)
